# According to US20200165194A1, “ADDITIVE COMPOSITION FOR CULTURE MEDIUM, ADDITIVE COMPOUND FOR CULTURE MEDIUM, AND METHOD FOR CULTURE OF CELLS OR TISSUE USING SAME” (NISSAN CHEMICAL CORPORATION, priority 2017, published 2020):
# System: mouse small intestinal organoid (Crypt)
# Test: Small intestine organoid formation in Matrigel (Experimental Example 4)
# Type: cell-based
# Conditions: 5 μM, 7 days
# Description: About 20 cm of the mouse small intestine was excised, and the adipose tissue and vascular tissue were removed on ice. The contents were sufficiently washed with PBS, cut open with scissors, and fragmented to about 2 mm. They were washed 20 times with 15 mL of PBS and the supernatant was removed. 25 mL of Gentle Cell Dissociation Reagent (manufactured by STEMCELL) was added, and the mixture was incubated at room temperature for 15 min while stirring at 20 rpm. The supernatant was removed, 10 mL of cold 0.1% BSA/PBS was added to the precipitate, and pipetting was performed three times. The supernatant was filtered with a 70 μm cell strainer (manufactured by BD Bioscience), and the filtrate was collected. Similarly, addition of 0.1% BSA/PBS to the remaining precipitate, pipetting, and filtration were repeated three times, and thus series of the four filtrates were prepared. Each filtrate was centrifuged at 290 g for 5 min at 4° C. After removing the supernatant, the cells were resuspended in 10 mL of cold 0.1% BSA/PBS and centrifuged at 200 g for 3 min at 4° C. The supernatant was removed, 10 mL of DMEM/F12 (manufactured by Wako Pure Chemical Industries, Ltd.) was added and the cells were suspended. 1 mL was separated and observed under a microscope. A filtrate having a sufficient intestinal fragment (Crypt) was selected, and the number of Crypt was counted using a hemocytometer. Cold Matrigel (registered trade mark) Matrix GFR(manufactured by Corning) in an equal amount to the cell suspension was added, mixed, and quickly dispensed into a 24-well plate warmed to 37° C. at 500 crypts/[…]/well. The plate was allowed to stand at 37° C. for 10 min to complete gelation. […] As a control, a well with no addition of the compound was prepared. After culturing for 7 days, the number and diameter of the formed small intestinal organoids were measured under a microscope, and the comparison results with no addition (control) are shown in the ninth table.
smiles,measurement,setting,value
CCC(=NNC(=O)C(CC)Nc1ccccc1)c1ccc(O)c(C)c1O (stereo not drawn) [k-1:H-7],organoid diameter (μm),control 130 ± 18,153 ± 21 μm
same,organoid number (relative value),control = 1,2.5
same,organoid formation (in words),mouse small intestinal organoid culture,promotes organoid formation
